From ChEMBL document CHEMBL1133206, “Antifungal rapamycin analogues with reduced immunosuppressive activity” (Bioorg Med Chem Lett, 2000) come the findings set out here.

The subject of one test is Nakaseomyces glabratus. As to the kind of experiment: In vitro antifungal activity against Torulopsis glabrata (TG 15545). In kind it is functional.
For test [1], the system named is Candida albicans. As to the kind of experiment: In vitro antifungal activity against Candida albicans (CA 10231). Format: functional.
Test [2] relates to Candida tropicalis. In words: In vitro antifungal activity against Candida tropicalis (CT 750). Format: functional.
Another test is filed under the species Homo sapiens. As to the kind of experiment: Inhibitory activity against human concanavalin-A proliferation assay. In kind it is functional.
Test [3] relates to Candida albicans. As to the kind of experiment: In vitro antifungal activity against Candida albicans (CA 442); Weak. Format: functional, organism-based.
Test [4] concerns Aspergillus niger. As to the kind of experiment: Compound was screened in vitro for antifungal activity at a minimum inhibitory concentration (~100 ug/mL) against Aspergillus nigerl; Not effected. In kind it is functional.
In test [5] the test system is Candida albicans. As to the kind of experiment: In vitro antifungal activity against […] (CA 34140); Not affected. In kind it is functional.
Test [6] concerns Candida albicans. As to the kind of experiment: In vitro for antifungal activity against Candida albicans (CA 579a). Format: functional.
Test [7] deals with Candida albicans. As to the kind of experiment: In vitro antifungal activity against Candida albicans (CA 38247); Weak. Format: functional, organism-based.
A further test deals with Pichia kudriavzevii. As to the kind of experiment: In vitro antifungal activity against Candida krusei (CK 28838). In kind it is functional.
Test [8] relates to Candida albicans. In words: In vitro antifungal activity against Candida albicans (CA 62376); Weak. In kind it is functional, organism-based.
Test [9] has as its system Candida albicans. In words: Compound was screened in vitro for antifungal activity against Candida albicans (CA 442). In kind it is functional.
In test [10] the test system is Candida tropicalis. As to the kind of experiment: Compound was screened in vitro for antifungal activity against Candida tropicalis (CT 750).
The subject of test [11] is Candida albicans. As to the kind of experiment: Compound was screened in vitro for antifungal activity against Candida albicans (CA 62376). Format: functional.
The subject of test [12] is Candida albicans. In words: Compound was screened in vitro for antifungal activity against Candida albicans (CA 38247). Format: functional.
For test [13], the system named is Aspergillus niger. In words: In vitro antifungal activity at a minimum inhibitory concentration (~100 ug/mL) against Aspergillus niger; Not affected. Format: functional. The following applies: Aspergillus niger; read-out: MIC.
For test [14], the system named is Candida albicans. In words: Compound was screened in vitro for antifungal activity at a minimum inhibitory concentration (~100 ug/mL) against […] ([…]); Not affected. Format: functional.
Test [15] relates to Candida albicans. As to the kind of experiment: Compound was screened in vitro for antifungal and immunosuppressive activity against Candida albicans (CA 38247). In kind it is functional.

Converted amounts (≈) assume the structure as drawn. Where only a bound is given, the exact number is not on record here.

`CO[C@@H]1C[C@H](C[C@@H](C)[C@@H]2CC(=O)[C@H](C)/C=C(\C)[C@@H](O)[C@@H](OC)C(=O)[C@H](C)C[C@H](C)/C=C/C=C/C=C(\C)[C@H](N(O)C(=O)N3CCOCC3)C[C@@H]3CC[C@@H](C)[C@@](O)(O3)C(=O)C(=O)N3CCCC[C@H]3C(=O)O2)CC[C@H]1O`: the MIC against Nakaseomyces glabratus is 6.25 µg/mL (≈ 6.08 µM); in the test on Candida albicans [1] it was 25 µg/mL (≈ 24.3 µM); against Candida tropicalis [2], 25 µg/mL (≈ 24.3 µM); in the test on Candida albicans [3], “Weak”; against Aspergillus niger [4], around 100 µg/mL (≈ 97.2 µM); against Candida albicans [5] it was around 100 µg/mL (≈ 97.2 µM). Also, the MIC with Candida albicans [6] is 50 µg/mL (≈ 48.6 µM); with Candida albicans [7], “Weak”; in the test with Pichia kudriavzevii, 6.25 µg/mL (≈ 6.08 µM); in the test on Candida albicans [8] it was “Weak”. Moreover, in the test listed under Homo sapiens, the IC50 came out at 1740 nM.
With `CO[C@H]1C[C@@H]2CC[C@@H](C)[C@@](O)(O2)C(=O)C(=O)N2CCCC[C@H]2C(=O)O[C@H]([C@H](C)C[C@@H]2CC[C@@H](O)[C@H](OC)C2)CC(=O)[C@H](C)/C=C(\C)[C@@H](O)[C@@H](OC)C(=O)[C@H](C)C[C@H](C)/C=C/C=C/C=C/1C` [SIROLIMUS], the minimum inhibitory concentration (MIC) with Nakaseomyces glabratus is below 0.1 µg/mL; with Candida albicans [9], 0.2 µg/mL (≈ 0.219 µM); against Candida albicans [1], 0.2 µg/mL (≈ 0.219 µM); in the test with Candida albicans [3] it was “Weak”; against Candida tropicalis [10] it was 0.2 µg/mL (≈ 0.219 µM); in the test on Candida albicans [11], 0.2 µg/mL (≈ 0.219 µM). The MIC in the test on Candida albicans [6] was 0.2 µg/mL (≈ 0.219 µM); in the test with Candida albicans [12] it was 0.2 µg/mL (≈ 0.219 µM); with Candida albicans [7] it was “Weak”; in the test with Aspergillus niger [13], around 100 µg/mL (≈ 109 µM); in the test with Pichia kudriavzevii, 0.78 µg/mL (≈ 0.853 µM); with Candida albicans [8], “Weak”. The molecule also had a minimum inhibitory concentration (MIC) against Candida albicans [14] of around 100 µg/mL (≈ 109 µM). The molecule further displayed an IC50 in the test listed under Homo sapiens of 1 nM.
Turning to `CO[C@H]1C[C@@H]2CC[C@@H](C)[C@@](O)(O2)C(=O)C(=O)N2CCCC[C@H]2C(=O)O[C@H]([C@H](C)C[C@@H]2CC[C@@H](OC(=O)c3ccc([N+](=O)[O-])cc3)[C@H](OC)C2)CC(=O)[C@H](C)/C=C(\C)[C@@H](O)[C@@H](OC)C(=O)[C@H](C)C[C@H](C)CCCC/C=C/1C`, the MIC against Candida albicans [9], against Candida albicans [1], in the test on Candida tropicalis [2], against Candida albicans [11], against Candida albicans [15] and against Candida albicans [6] was above 100 µg/mL in each case. The MIC in the test on Pichia kudriavzevii is above 100 µg/mL.
